Counter-ions that a name gives are not always drawn.
Tests used:
[1] = system: skin; assay: Skin elasticity and wrinkling; details: no method or data given
[2] = UV spectrum (UV absorbance, FIG. 1); assay type: physicochemical
Text: FIG. 1 is a Ultraviolet (UV) spectrum showing the UV absorbance of 3-[2-(4-diethylaminophenyl)-2-oxoethyl]thiazolium salt.
FIG. 1 provides the UV spectrum for 3-[2-(4-diethylaminophenyl)-2-oxoethyl]thiazolium salt. […] The maximum UV absorption occurs at a wavelength of 350 nm.

With `CCN(CC)c1ccc(C(=O)C[n+]2ccsc2)cc1` [3-[2-(4-diethylaminophenyl)-2-oxoethyl]thiazolium salt] as the compound, how does the elasticity of skin [1] read?
Its elasticity of skin is “improve the elasticity”.

And the wrinkling of skin [1]?
Its wrinkling of skin is “reduce the wrinkling of skin”.

And the “wavelength of maximum UV absorption” value [2]?
The value was 350 nm.

And the UV absorbing properties ([2]; UV-A range)?
The UV absorbing properties was “excellent UV absorber, particularly in the UV-A range”.
